Values after ≈ are worked out from the molar mass of the structure shown. Active and inactive are the calls of the source. No cut-off for these calls is given here. Bridge positions count the residues as written; N and C are the ends. Square brackets hold non-standard residues; d marks the D form. Peptide text beside a SMILES is read from it. Dab = NCC[C@H](N)C(=O)O
Assays:
[1] = system: Escherichia coli; test: Antimicrobial activity against Escherichia coli ATCC 25922 in presence of 8 ug/ml NAB741; type: functional
[2] = system: Escherichia coli; test: Antimicrobial activity against Escherichia coli ATCC 25922 in presence of 2 ug/ml NAB741; type: functional
[3] = system: Klebsiella pneumoniae; test: Ratio of MIC for Klebsiella pneumoniae ATCC 13883 to MIC for Klebsiella pneumoniae ATCC 13883 in presence of 4 ug/ml of NAB741; type: functional
[4] = system: Enterobacter cloacae; test: Ratio of MIC for Enterobacter cloacae ATCC 23355 to MIC for Enterobacter cloacae ATCC 23355 in presence of 4 ug/ml of NAB741; type: functional
[5] = system: Escherichia coli; test: Antimicrobial activity against Escherichia coli IH3080 by Etest method in presence of 2 ug/ml NAB741; type: functional
[6] = system: Klebsiella pneumoniae; test: Antimicrobial activity against in Klebsiella pneumoniae ATCC 13883 in presence of NAB741; type: functional
[7] = system: Escherichia coli; test: Antimicrobial activity against in Escherichia coli ATCC 25922 in presence of NAB741; type: functional
[8] = system: Escherichia coli; test: Antimicrobial activity against Escherichia coli ATCC 25922 in presence of 32 ug/ml NAB741; type: functional
[9] = system: Klebsiella pneumoniae; test: Antimicrobial activity against Klebsiella pneumoniae ATCC 13883 by Etest method; type: functional
[10] = system: Klebsiella pneumoniae; test: Antimicrobial activity against Klebsiella pneumoniae ATCC 13883 by Etest method in presence of 4 ug/ml NAB741; type: functional
[11] = system: Enterobacter cloacae; test: Antimicrobial activity against Enterobacter cloacae ATCC 23355 by Etest method; type: functional
[12] = system: Acinetobacter baumannii; test: Antimicrobial activity against Acinetobacter baumannii ATCC 19606 by Etest method in presence of 4 ug/ml NAB741; type: functional
[13] = system: Enterobacter cloacae; test: Antimicrobial activity against in Enterobacter cloacae ATCC 23355 in presence of NAB741; type: functional
[14] = system: Escherichia coli; test: Antimicrobial activity against Escherichia coli ATCC 25922 by Etest method; type: functional
[15] = system: Escherichia coli; test: Antimicrobial activity against Escherichia coli ATCC 25922 in presence of […] ug/ml NAB741; type: functional
[16] = system: Escherichia coli; test: Antimicrobial activity against Escherichia coli ATCC 25922 by Etest method in presence of 2 ug/ml NAB741; type: functional
[17] = system: Acinetobacter baumannii; test: Antimicrobial activity against Acinetobacter baumannii ATCC 19606 by Etest method in presence of 2 ug/ml NAB741; type: functional
[18] = system: Klebsiella pneumoniae; test: Antimicrobial activity against Klebsiella pneumoniae ATCC 13883 by Etest method in presence of 2 ug/ml NAB741; type: functional
[19] = system: Acinetobacter baumannii; test: Ratio of MIC for Acinetobacter baumannii ATCC 19606 to MIC for Acinetobacter baumannii ATCC 19606 in presence of 4 ug/ml of NAB741; type: functional
[20] = system: Enterobacter cloacae; test: Antimicrobial activity against Enterobacter cloacae ATCC 23355 by Etest method in presence of 2 ug/ml NAB741; type: functional
[21] = system: Escherichia coli; test: Antimicrobial activity against Escherichia coli ATCC 25922 in presence of 4 ug/ml NAB741; type: functional
[22] = system: Escherichia coli; test: Antimicrobial activity against Escherichia coli IH3080 by Etest method in presence of 4 ug/ml NAB741; type: functional
[23] = system: Escherichia coli; test: Ratio of MIC for Escherichia coli ATCC 25922 to MIC for Escherichia coli ATCC 25922 in presence of 4 ug/ml of NAB741; type: functional
[24] = system: Acinetobacter baumannii; test: Antimicrobial activity against in Acinetobacter baumannii ATCC 19606 in presence of NAB741; type: functional
[25] = system: Escherichia coli; test: Antimicrobial activity against in Escherichia coli IH3080 in presence of NAB741; type: functional
[26] = system: Acinetobacter baumannii; test: Antimicrobial activity against Acinetobacter baumannii ATCC 19606 by Etest method; type: functional
[27] = system: Escherichia coli; test: Antimicrobial activity against Escherichia coli IH3080 by Etest method; type: functional
[28] = system: Escherichia coli; test: Antimicrobial activity against Escherichia coli ATCC 25922 by Etest method in presence of 4 ug/ml NAB741; type: functional
[29] = system: Escherichia coli; test: Ratio of MIC for Escherichia coli IH3080 to MIC for Escherichia coli IH3080 in presence of 4 ug/ml of NAB741; type: functional
[30] = system: Enterobacter cloacae; test: Antimicrobial activity against Enterobacter cloacae ATCC 23355 by Etest method in presence of 4 ug/ml NAB741; type: functional
[31] = system: Escherichia coli; test: Antimicrobial activity against Escherichia coli ATCC 25922; type: functional
[32] = system: Rattus norvegicus; test: (§1) Drug level in Sprague-Dawley rat urine at 1 mg/kg, iv; type: ADME, organism-based; parameters: dose 1 mg/kg, route intravenous; conditions: in vivo
[33] = system: Rattus norvegicus; test: (§2) Half-life in Sprague-Dawley rat at 1 mg/kg, iv; type: ADME, organism-based; parameters: dose 1 mg/kg, route intravenous; conditions: in vivo
[34] = system: Rattus norvegicus; test: (§3) Volume of distribution in Sprague-Dawley rat at 1 mg/kg, iv; type: ADME, organism-based; parameters: dose 1 mg/kg, route intravenous; conditions: in vivo
[35] = system: Escherichia coli; test: Antimicrobial activity against Escherichia coli IH3080 assessed as zone of inhibition at 10 ug after 18 hrs by disk diffusion method; type: functional
[36] = system: Enterobacter cloacae; test: Antimicrobial activity against Enterobacter cloacae ATCC 23355 at 16 ug/ml; type: functional, organism-based
[37] = as §1; type: ADME, organism-based; parameters: dose 1 mg/kg, route intravenous; conditions: Sprague-Dawley, urine, read-out: Drug uptake
[38] = system: Acinetobacter baumannii; test: Antimicrobial activity against Acinetobacter baumannii ATCC 19606 assessed as zone of inhibition at 10 ug after 18 hrs by disk diffusion method; type: functional
[39] = Renal clearance in Sprague-Dawley rat at 1 mg/kg, iv; type: ADME, organism-based, Kidney; parameters: dose 1 mg/kg, route intravenous; conditions: in vivo, read-out: CL_renal
[40] = system: Escherichia coli; test: Antimicrobial activity against Escherichia coli IH3080 assessed as zone of inhibition at 10 ug after 18 hrs by disk diffusion method in presence of 1 ug/ml rifampin; type: functional
[41] = system: Escherichia coli; test: Antimicrobial activity against Escherichia coli F19; type: functional
[42] = system: Pseudomonas aeruginosa; test: Antimicrobial activity against Pseudomonas aeruginosa ATCC 27853 assessed as zone of inhibition at 10 ug after 18 hrs by disk diffusion method in presence of 1 ug/ml rifampin; type: functional
[43] = Plasma concentration in Sprague-Dawley rat at 1 mg/kg, iv administered after 10 minutes; type: ADME, organism-based; parameters: dose 1 mg/kg, route intravenous
[44] = system: Acinetobacter baumannii; test: Antimicrobial activity against Acinetobacter baumannii ATCC 19606 assessed as zone of inhibition at 10 ug after 18 hrs by disk diffusion method in presence of 1 ug/ml rifampin; type: functional
[45] = as §2; type: ADME, organism-based; parameters: dose 1 mg/kg, route intravenous; conditions: Sprague-Dawley, in vivo
[46] = Total body clearance in Sprague-Dawley rat at 1 mg/kg, iv; type: ADME, organism-based; parameters: dose 1 mg/kg, route intravenous; conditions: in vivo
[47] = system: V79; test: Cytotoxicity against Chinese hamster V79 cells at 0.25 ug/ml to 128 ug/ml after 24 hrs; type: cell-based, Cricetulus griseus; conditions: v79, 24 h
[48] = system: Pseudomonas aeruginosa; test: Antimicrobial activity against Pseudomonas aeruginosa ATCC 27853 assessed as zone of inhibition at 10 ug after 18 hrs by disk diffusion method; type: functional
[49] = as §3; type: ADME, organism-based; parameters: dose 1 mg/kg, route intravenous; conditions: Sprague-Dawley, in vivo

Molecule: CC[C@H]1OC(=O)[C@H](C)[C@@H](O[C@H]2C[C@@](C)(OC)[C@@H](O)[C@H](C)O2)[C@H](C)[C@@H](O[C@@H]2O[C@H](C)C[C@H](N(C)C)[C@H]2O)[C@](C)(OC)C[C@@H](C)C(=O)[C@H](C)[C@@H](O)[C@]1(C)O [CLARITHROMYCIN]
- MIC [1]: 0.5 µg/mL
- MIC [2]: 32 µg/mL
- Ratio [3]: 6
- Ratio [4]: 64
- MIC [5]: 1 µg/mL
- fractional inhibitory concentration index (FICI) [6]: 0.167
- fractional inhibitory concentration index (FICI) [7]: 0.094
- MIC [8]: 0.063 µg/mL
- MIC [9]: 12 µg/mL (≈ 16 µM)
- MIC [10]: 1 µg/mL
- MIC [11]: 48 µg/mL (≈ 64.2 µM)
- MIC [12]: 0.5 µg/mL
- fractional inhibitory concentration index (FICI) [13]: 0.135
- MIC [14]: 16 µg/mL (≈ 21.4 µM)
- MIC [15]: 0.25 µg/mL
- MIC [16]: 0.5 µg/mL
- MIC [17]: 0.75 µg/mL
- MIC [18]: 4 µg/mL
- Ratio [19]: 12
- MIC [20]: 16 µg/mL
- MIC [21]: 1 µg/mL
- MIC [22]: 0.125 µg/mL
- Ratio [23]: 84
- fractional inhibitory concentration index (FICI) [24]: 0.156
- fractional inhibitory concentration index (FICI) [25]: 0.126
- MIC [26]: 8 µg/mL (≈ 10.7 µM)
- MIC [27]: 12 µg/mL (≈ 16 µM)
- MIC [28]: 0.094 µg/mL
- Ratio [29]: 64
- MIC [30]: 0.5 µg/mL
- MIC [31]: ≥ 64 µg/mL

Molecule: COLISTIN
- Drug uptake [32]: 0.18%
- t1/2 [33]: 74.6 min
- Vd [34]: 0.496 L/kg

Molecule: CC(=O)N[C@H](C(=O)N[C@H](CO)C(=O)N[C@H]1CCNC(=O)[C@H]([C@@H](C)O)NC(=O)[C@H](CCN)NC(=O)[C@H](CCN)NC(=O)[C@H](CC(C)C)NC(=O)[C@@H](Cc2ccccc2)NC(=O)[C@H](CCN)NC1=O)[C@@H](C)O [SPR-741] (Ac-T[dS][Dab][Dab][dF]L[Dab][Dab]T; lactam 3-C)
- inhibition zone (IZ) [35]: 12 mm2
- Activity [36]: Active
- dose excreted [37]: 50.9%
- inhibition zone (IZ) [38]: 9 mm2
- CL renal [39]: 3.78 mL/min/kg
- inhibition zone (IZ) [40]: 230 mm2
- MIC [41]: 16 µg/mL (≈ 16.1 µM)
- inhibition zone (IZ) [42]: 20 mm2
- concentration at 10 min [43]: 3130 ng/mL
- inhibition zone (IZ) [44]: 223 mm2
- half-life [45]: 32.7 min
- clearance [46]: 7.39 mL/min/kg
- Activity [47]: Non-toxic
- inhibition zone (IZ) [48]: 4 mm2
- Vd [49]: 0.243 L/kg
